Assay results published in patent publication US9650415B2, “Uric acid-lowering agent” (Suntory Holdings Limited, priority 2014, dated 2017).

Key:
[1] = molecular target: xanthine oxidase (XO); test: in vitro xanthine oxidase (XO) inhibiting action; assay type: biochemical; conditions: 4 U/L XO in PBS pH 7.5, xanthine substrate, absorbance at 295 nm after 30 minutes; mean±standard error
Protocol: The in vitro xanthine oxidase (XO) inhibiting action was studied on 210 kinds of cyclic dipeptides, linear dipeptides Tyr-Gly and Gly-Tyr, and an amino acid Tyr. […] Thereafter, 20 μL of a 250 μM xanthine solution previously dissolved in the PBS was added thereto, and the absorbance after 30 minutes was measured using a spectrophotometer (Synegy HT, manufactured by Bio Tek). The XO inhibition rate (%) at each concentration was calculated by the following calculation formula, to obtain activities of inhibiting XO (IC50 values). […] [formula] • wherein A: the absorbance of an enzyme-added, sample-non-added group at 295 nm; • B: the absorbance of an enzyme-non-added, sample-non-added group at 295 nm; • C: the absorbance of an enzyme-added, sample-added group at 295 nm; and • D: the absorbance of an enzyme-non-added, sample-added group at 295 nm.

[2] = test system: hyperuricemic mice; test: action of lowering serum uric acid levels for hyperuricemic mice (potassium oxonate model); assay type: in vivo, BALBc mice; conditions: FIG. 2
Protocol: As to the animals used, male 7-week old BALBc mice were purchased from CLEA Japan, Inc., and subjected to an experiment after a one-week period of conditioning. The animals were bred in a breeding room with air-conditioning facilities (temperature: 23.5°±1.0° C., humidity: 55±10 RH %, the number of ventilation: 12 to 15 times/hour, illuminated: from 7:00 to 19:00 each day). During the period of conditioning, the mice were allowed to take a commercially available feed (CE-2, manufactured by CLEA Japan, Inc.) and distilled water ad libitum.
Oxonic acid is a substance that raises a blood uric acid level by inhibiting a urikase, a metabolic enzyme for uric acid. In view of the above, potassium oxonate (PO) was administered, thereby generating hyperuricemic model animals (see, Planta Med 2009; 75:302-306). […] In all the groups that include PO administration, PO previously suspended in a 0.5% aqueous CMC-Na solution was administered at a concentration of 250 mg/kg, and Normal Group was administered with a 0.5% aqueous CMC-Na solution, each being administered intraperitoneally. […] After 2 hours from the administration with PO, the blood was collected from the abdominal vena cava under anesthesia. After blood removal, the liver was harvested. The collected blood was allowed to stand at room temperature for 45 minutes, and centrifuged at 8,000 rpm for 10 minutes to recover sera. Here, the sera and the liver were preserved at −80° C. until the measurements were carried out.
The serum uric acid level was measured using 7180 Clinical Analyzer (manufactured by Hitachi Technologies).
The actions of lowering serum uric acid levels of soybean peptide heat-treated products were studied using hyperuricemic model animals, in the same manner as in Test Example 2. […] For each of the above-mentioned groups, the administration and the blood collection were carried out in the same manner as in Test Example 2 to measure a serum uric acid level. Here, the mixture of the 8 kinds of cyclic dipeptides prepared by using synthesized products of Cyclo(Ser-Tyr), Cyclo(Tyr-Gly), Cyclo(Tyr-Tyr), Cyclo(Phe-Tyr), Cyclo(Leu-Tyr), Cyclo(Val-Tyr), Cyclo(Ile-Tyr), and Cyclo(Asn-Tyr), in amounts to be contained in the soybean peptide heat-treated product, was used.
The actions of lowering serum uric acid levels of soybean peptide heat-treated products according to dose were studied using hyperuricemic model animals, in the same manner as in Test Example 3. […] For each of the above-mentioned groups, the administration and the blood collection were carried out in the same manner as in Test Example 2 to measure a serum uric acid level.

| Compound | IC50 [1] [µM] | other results |
| --- | --- | --- |
| O=C1NC(Cc2ccc(O)cc2)C(=O)NC1Cc1ccccc1 (centres unmarked) [Cyclo(Phe-Tyr), cyclophenylalanyltyrosine] | 22.2 ± 0.8 |  |
| Oc1ncnc2[nH]ncc12 [Allopurinol, reference compound] |  | serum uric acid level, effect versus PO Group ([2]; 1 mg/kg oral): significant difference |
| NC(=O)CC1NC(=O)C(Cc2ccc(O)cc2)NC1=O (centres unmarked) [Cyclo(Asn-Tyr), cycloasparaginyltyrosine] | 113 ± 11.4 |  |
| O=C1NC(Cc2ccc(O)cc2)C(=O)NC1Cc1ccc(O)cc1 (centres unmarked) [Cyclo(Tyr-Tyr), cyclotyrosyltyrosine] | 29.5 ± 2.9 |  |
| O=C1CNC(=O)C(Cc2ccc(O)cc2)N1 (centres unmarked) [Cyclo(Tyr-Gly), cyclotyrosylglycine] |  | serum uric acid level, effect versus PO Group ([2]; 30 mg/kg oral): significant difference; serum uric acid level, effect versus PO Group ([2]; 100 mg/kg oral): significant difference; action of lowering serum uric acid level ([2]; Cyclo(Tyr-Gly) 10, 30, 100 mg/kg oral, PO 250 mg/kg i.p.): has an action of lowering a uric acid level in a dose-dependent manner |
| O=C(O)CC1NC(=O)C(Cc2ccc(O)cc2)NC1=O (centres unmarked) [Cyclo(Asp-Tyr), cycloaspartyltyrosine] | 172 ± 13.5 |  |
